{"source": "paper PMC10721329", "about": "“Quisinostat is a brain-penetrant radiosensitizer in glioblastoma” (JCI Insight, 2023)", "key": {"[1]": {"assay": "Total and unbound QST in tumor and contralateral brain at survival end point, orthotopic GB126 PDX", "format": "in vivo", "settings": "for UNBOUND [QST], Brain / UNBOUND [QST], Plasma / UNBOUND [QST], Tumor: individual mice; for concentration at 3 h: athymic nude, mouse", "method": "All mice included in the survival study were processed for end-point PK and PD analyses once moribund. Plasma, tumor, and contralateral brain tissues were harvested 3 hours after dosing with 10 mg/kg QST, allowing for direct comparison of long-term treatment with the PK-PD data collected from acute (1-week) treatment with QST or combination therapy (Figure 8A). […] There were no significant differences in total or unbound drug concentrations in tumor or brain tissue between the monotherapy or combination therapy cohorts (Figure 8, E and F). Immunoblot analysis of dissected tumor samples confirmed that QST induced substantial histone H3 hyperacetylation in brain tumors, compared with untreated animals, consistent with an in vivo on-target effect (Figure 9, A and B).\nQST concentrations in specimens were measured using reverse-phase LC on the AB SCIEX QTRAP6500+ LC-MS/MS system by operating electrospray in the positive ion mode. For liquid chromatographic separation, gradient elution was performed using a Phenomenex Kinetex F5 100 Å column (100 × 2.1 mm, 2.6 μm). The initial composition of the mobile phase was 70% phase A (0.1% formic acid in water) and 30% phase B (0.1% formic acid in 1:1 acetonitrile/methanol) with a 0.35 mL/min flow rate. Gradient elution was achieved as follows: mobile phase (B) was maintained at 30% from 0 to 0.3 minutes, increased to 95% from 0.3 to 0.8 minutes, maintained at 95% from 0.8 to 2.5 minutes, and decreased to 30% from 2.5 to 2.8 minutes. The total run time was 3.5 minutes. The internal standard used in this study was D8-infigratinib. The retention times for QST and D8-infigratinib were 1.6 and 1.8 minutes, respectively. Mass-to-charge ratio transitions were as follows: 395.20 → 144.00 (QST) and 568.08 → 321.00 (D8-infigratinib). LC-MS/MS analysis was performed using an Analyst 1.7 Chromatographic Data System. See Supplemental Methods for detailed PK experiments.\nGy on MWF for a total of 6 Gy in the first week of treatment. Treatment groups included vehicle (50% PEG-3000), QST (10 mg/kg) alone, 6 Gy whole-brain IR treatment with vehicle, and 6 Gy whole-brain IR treatment with 10 mg/kg QST. QST was administered to mice through intraperitoneal injections two hours prior to whole-brain radiation treatment. Upon completion of the radiation regimen, IR-treated mice subsequently received QST or vehicle alone for the rest of the experiment. Tumor growth and treatment response was monitored by IVIS bioluminescence […]\nonce per week. […]\nTissue from the hemisphere contralateral to the tumor was also collected as a normal brain/nontumor reference sample. For PK analyses, the mice were anesthetized with isoflurane, and at least 300 μL of blood was drawn from the right ventricle of the heart. The blood was collected in tubes containing 10 μL of 0.1 M KOH in EDTA to prevent blood coagulation. Blood samples were immediately centrifuged at 3000 rpm for 10 minutes at 4 °C to allow separation of plasma. After collection of the blood, the tumor was dissected out of the brain and flash -frozen.\nBoth plasma and erythrocytes were flash-frozen for subsequent analysis. […]\nvortex-mixed for 10 s and centrifuged at 12000 g at 4 °C for 10 min. A 100-µL aliquot of the supernatant was transferred to an autosampler vial, and 5 µL was injected into the LC-MS/MS system for analysis. Whenever necessary, appropriate dilutions were made to accommodate the analysis of small volume samples.\nBrain and Brain Tumor Sample Preparation\nNormal brain and brain tumor tissue homogenates were prepared by 1:4 (mass/volume) ratio with PBS. Samples were homogenized under 6.00 m/s speed for 40 seconds with 3 cycles by Bead Ruptor Elite homogenizer (Omni International). Plasma was used as a surrogate matrix for brain/tumor homogenate. Brain homogenate samples from in vivo studies were prepared as described for plasma samples. Analyte and IS were extracted by protein precipitation with methanol containing IS. After centrifugation at 12000 rpm for 10 minutes at 4 °C, 5 µL of […]"}, "GB126 cells": {"tested_on": "GB126 cells", "assay": "Cell cycle analysis, propidium iodide flow cytometry", "format": "cell-based, human", "method": "(§1) For cell cycle analysis following short -term DMSO or QST treatment in GSC cultures, approximately 1 million cells were harvested, washed in cold 1× PBS once, and fixed with 3–4 mL of ice cold 70% ethanol, added dropwise while vortexing. Cells were fixed on ice for 30 minutes and washed twice with 1× PBS. Cells were then resuspended in 500 μL of propidium iodide/RNAse staining buffer (BD Biosciences, 550825) for 15 minutes at room temperature before analysis. Data from all the samples were obtained using a Fortessa flow cytometer (BD Biosciences) and analyzed using the FlowJo software (TreeStar). Cell cycle analysis was performed in triplicate for all cell lines."}, "BT145 cells": {"tested_on": "BT145 cells", "assay": "Cell cycle analysis, propidium iodide flow cytometry", "format": "cell-based, human", "method": "as §1"}, "[2]": {"settings": "QST at IC50, 24 hours, replicates"}}, "note": "Several values for one entry are separate records, joined by “and”; a condition that tells them apart may be missing. Equal entries are not always repeated. Where two headings read alike, the source gives them in different places."}
{"smiles": "Cn1cc(CNCC2CCN(c3ncc(C(=O)NO)cn3)CC2)c2ccccc21", "note": "[QST, quisinostat]", "values": [{"measurement": "UNBOUND [QST], Brain", "setting": "[1]; Combination (QST + IR) cohort", "result": "3.62 nM and 1.48 nM and 2.18 nM"}, {"measurement": "UNBOUND [QST], Plasma", "setting": "[1]; Combination (QST + IR) cohort", "result": "158.39 nM and 19.58 nM and 43.86 nM"}, {"measurement": "UNBOUND [QST], Tumor", "setting": "[1]; Combination (QST + IR) cohort", "result": "66.7 nM and 35.51 nM and 128.5 nM and 21.89 nM and 23.43 nM"}, {"measurement": "UNBOUND [QST], Brain", "setting": "[1]; QST cohort", "result": "1.049 nM and 4.404 nM and 6.584 nM and 1.529 nM"}, {"measurement": "UNBOUND [QST], Plasma", "setting": "[1]; QST cohort", "result": "35.734 nM and 100.413 nM and 74.395 nM and 209.24 nM"}, {"measurement": "UNBOUND [QST], Tumor", "setting": "[1]; QST cohort", "result": "93.34 nM and 77.02 nM and 33.36 nM and 81.88 nM"}, {"measurement": "concentration at 3 h", "setting": "[1]; brain (contralateral to tumor), intraperitoneal, 10 mg/kg, Combo cohort, mean, read-out: Total QST, Brain, Mean", "result": 48.5, "unit": "nM"}, {"measurement": "concentration at 3 h", "setting": "[1]; brain (contralateral to tumor), intraperitoneal, 10 mg/kg, Combo cohort, mean, read-out: Unbound QST, Brain, Mean", "result": 2.42, "unit": "nM"}, {"measurement": "concentration at 3 h", "setting": "[1]; brain (contralateral to tumor), intraperitoneal, 10 mg/kg, QST cohort, mean, read-out: Total QST, Brain, Mean", "result": 67.8, "unit": "nM"}, {"measurement": "concentration at 3 h", "setting": "[1]; brain (contralateral to tumor), intraperitoneal, 10 mg/kg, QST cohort, mean, read-out: Unbound QST, Brain, Mean", "result": 3.39, "unit": "nM"}, {"measurement": "concentration at 3 h", "setting": "[1]; in vivo, orthotopic GB126, end point (moribund), 3 hours after 10 mg/kg, read-out: unbound QST in tumors, mean", "result": 71.4, "unit": "nM"}, {"measurement": "concentration at 3 h", "setting": "[1]; peritumoral (contralateral) brain tissue, intraperitoneal, 10 mg/kg, orthotopic GB126, end point (moribund), 3 hours after 10 mg/kg, read-out: unbound QST in peritumoral brain tissue, mean", "result": 3.4, "unit": "nM"}, {"measurement": "concentration at 3 h", "setting": "[1]; plasma, intraperitoneal, 10 mg/kg, Combo cohort, mean, read-out: Total QST, Plasma, Mean", "result": 141, "unit": "nM"}, {"measurement": "concentration at 3 h", "setting": "[1]; plasma, intraperitoneal, 10 mg/kg, Combo cohort, mean, read-out: Unbound QST, Plasma, Mean", "result": 55.7, "unit": "nM"}, {"measurement": "concentration at 3 h", "setting": "[1]; plasma, intraperitoneal, 10 mg/kg, QST cohort, mean, read-out: Total QST, Plasma, Mean", "result": 265, "unit": "nM"}, {"measurement": "concentration at 3 h", "setting": "[1]; plasma, intraperitoneal, 10 mg/kg, QST cohort, mean, read-out: Unbound QST, Plasma, Mean", "result": 105, "unit": "nM"}, {"measurement": "concentration at 3 h", "setting": "[1]; tumor, intraperitoneal, 10 mg/kg, Combo cohort, mean, read-out: Total QST, Tumor, Mean", "result": 1100, "unit": "nM"}, {"measurement": "concentration at 3 h", "setting": "[1]; tumor, intraperitoneal, 10 mg/kg, Combo cohort, mean, read-out: Unbound QST, Tumor, Mean", "result": 55.2, "unit": "nM"}, {"measurement": "concentration at 3 h", "setting": "[1]; tumor, intraperitoneal, 10 mg/kg, QST cohort, mean, read-out: Total QST, Tumor, Mean", "result": 1430, "unit": "nM"}, {"measurement": "concentration at 3 h", "setting": "[1]; tumor, intraperitoneal, 10 mg/kg, QST cohort, mean, read-out: Unbound QST, Tumor, Mean", "result": 71.4, "unit": "nM"}, {"measurement": "Cell Cycle Phase, G1", "setting": "GB126 cells; [2]", "result": "37.77 and 45.07 and 43.79"}, {"measurement": "Cell Cycle Phase, G2", "setting": "GB126 cells; [2]", "result": "7.41 and 0 and 1.63"}, {"measurement": "Cell Cycle Phase, S", "setting": "GB126 cells; [2]", "result": "54.82 and 54.93 and 54.58"}, {"measurement": "Mean proportion of cells in G1", "setting": "GB126 cells; QST, 24 hours", "result": 42, "unit": "%"}, {"measurement": "Mean proportion of cells in G2", "setting": "GB126 cells; QST, 24 hours", "result": 3, "unit": "%"}, {"measurement": "Mean proportion of cells in S", "setting": "GB126 cells; QST, 24 hours", "result": 55, "unit": "%"}, {"measurement": "Cell Cycle Phase (% of cells), G1", "setting": "BT145 cells; [2]", "result": "33.6% and 37% and 36.8%"}, {"measurement": "Cell Cycle Phase (% of cells), G2", "setting": "BT145 cells; [2]", "result": "48.8% and 41.5% and 48%"}, {"measurement": "Cell Cycle Phase (% of cells), S", "setting": "BT145 cells; [2]", "result": "16.4% and 20.3% and 13.8%"}, {"measurement": "Mean proportion of cells in G1", "setting": "BT145 cells; QST, 24 hours", "result": 36, "unit": "%"}, {"measurement": "Mean proportion of cells in G2", "setting": "BT145 cells; QST, 24 hours", "result": 46, "unit": "%"}, {"measurement": "Mean proportion of cells in S", "setting": "BT145 cells; QST, 24 hours", "result": 17, "unit": "%"}]}
